In PubChem BioAssay (NCI) one finds TGI and GI50 data, which are given here for 13 compounds.

What all share (test): NCI anticancer screen, dose series, 48 h
Assay [1] relates to NCI-H23 lung.
Assay [2] relates to MALME-3M melanoma.
The test system of assay [3] is OVCAR-8 ovarian.
For assay [4], the system named is RXF 393 renal.
Assay [5] relates to UACC-257 melanoma.
Assay [6] deals with K-562 leukemia.
The subject of assay [7] is 786-0 renal.
The subject of assay [8] is NCI-H460 lung.
Assay [9] deals with MDA-MB-435.
Assay [10] concerns MCF7 breast.

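Five concentrations, 48 hours, 96-well plates. GI50 is the concentration that inhibits growth by half. TGI is the concentration that stops growth completely.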

With `COc1ccc(C23C(=O)c4ccccc4N2O[C@H]2C(=O)N(c4ccccc4)C(=O)[C@H]23)cc1` (stereo partly drawn), the TGI in assay [1], in assay [2], in assay [3], in assay [4], in assay [5] and in [6] was above 100 µM each time. Moreover, the TGI in assay [7] and in assay [8] was above 100 µM throughout.
Take `CCCCCCCCCCCc1nnc(N)o1`: the TGI in assay [1], in assay [2], in assay [3], in assay [5], in assay [6] and in assay [7] was above 100 µM each time. Besides, the TGI in assay [8] is above 100 µM.
With `N.N.N.N.[Co+3].[N-]=[N+]=[N-].[N-]=[N+]=[N-].[N-]=[N+]=[N-]`, the GI50 in assay [1] was above 100 µM; in [2], 78.1 µM; in [3], above 100 µM; in assay [5] it was above 100 µM; in assay [6] it was above 100 µM; in assay [7], above 100 µM. For the same compound, the GI50 in [8] was above 100 µM. The TGI in [1], in assay [2], in [3], in assay [5], in assay [6] and in assay [7] was above 100 µM throughout. Further, the TGI in assay [8] is above 100 µM.
As for `CC(C)=CC1C[C@H](C2CC=C3C2(C)CCC2[C@@]3(C)C(=O)CC3[C@]2(C)C=CC(=O)[C@]3(C)CO)CO1` (stereo partly drawn), the TGI in assay [1] was 19.1 µM; in assay [2], 16.8 µM; in [3], above 24.4 µM; in assay [4], 23.2 µM; in [5] it was 30.8 µM; in [6], 31.3 µM. In addition, the TGI was 15.7 µM in assay [7] and 25.4 µM in assay [8].
As to `COC(=O)CC1C[C@H](C#N)N(C(=O)c2ccccc2)C[C@@H]1CC[N+](=O)[O-]` (stereo partly drawn), the TGI in assay [1], in [2], in assay [3], in assay [4], in assay [5] and in [6] was above 100 µM throughout. The TGI in assay [7] and in assay [8] was above 100 µM each time.
Turning to `COc1ccc(/C=N/N=C(\N)NO)cc1O`, the TGI was above 100 µM in assay [1]; 63.6 µM in assay [2]; above 100 µM in assay [4]; above 100 µM in [6]; 55.7 µM in assay [7]; above 100 µM in assay [8].
Turning to `O=C(O)CCN(CCCCN(CCC(=O)O)CCC(=O)O)CCC(=O)O`, the TGI in assay [1], in assay [2], in assay [3], in assay [6], in [7] and in assay [8] was above 100 µM in each case.
For the compound `N.N.N.N.N.NC(=O)c1nn[n-]n1.[Cl-].[Co+3]`, the GI50 in assay [1], in assay [2], in assay [3], in assay [4], in [5] and in assay [6] was above 100 µM throughout. Moreover, the GI50 in [7] and in [8] was above 100 µM throughout. The TGI in assay [1], in assay [2], in assay [3], in assay [4], in assay [5] and in assay [6] was above 100 µM in each case. The TGI in [7] and in assay [8] was above 100 µM throughout.
As to `CCOC(=O)/C(C=Nc1ccc(-c2nc3ccccc3[nH]2)cc1)=C(/C)O`, the GI50 was 15 µM in [1]; 8.78 µM in assay [3]; 11.5 µM in assay [5]; 4.51 µM in assay [6]; 11 µM in assay [7]; 14.9 µM in [9]. The GI50 in [10] is 11.7 µM; in [8], 12.1 µM. Further, the TGI in assay [1] was 31 µM; in [3] it was 17.7 µM; in assay [5], 28.3 µM; in assay [6] it was 14.8 µM; in [7] it was 23.5 µM; in assay [9], 43.4 µM. Further, the TGI in [10] and in assay [8] was above 50 µM throughout.
Regarding `COC(=O)NC(=O)c1cn(C2OC(CO)C(O)C2O)c(=O)[nH]c1=O` (stereo not drawn), the TGI in [1], in assay [2], in [3], in assay [5], in assay [6] and in assay [7] was above 100 µM each time. In [8], this compound showed a TGI above 100 µM.
With `Cc1cc(CC(=O)NCCO)n(CCO)c(=O)c1`, the TGI in assay [1], in assay [2], in assay [3], in [4], in [5] and in [6] was above 100 µM each time. The TGI in assay [7] and in assay [8] was above 100 µM throughout.
As to `NC(=O)C(=O)N/N=C1\C(=O)N(c2ccc(Cl)cc2Cl)C(=O)C1C(=O)Nc1ccc(Cl)cc1Cl` (stereo not drawn), the TGI in [1], in assay [2], in [3], in assay [4], in [5] and in assay [6] was above 100 µM throughout. Besides, the TGI in assay [7] and in assay [8] was above 100 µM in each case.
Turning to `NS(=O)(=O)c1ccc(-n2nc(-c3ccc(Cl)cc3)cc2-c2cc(O)ccc2O)cc1`, the GI50 in [1] is 18.3 µM; in [3] it was 13.3 µM; in [5] it was 11.1 µM; in assay [6], 4.9 µM; in assay [7], 5.18 µM; in assay [9] it was 11.7 µM. In addition, the GI50 in [10] was 5.97 µM; in assay [8], 7.81 µM. Besides, the TGI in [1] came out at 34.6 µM; in assay [3], 58.6 µM; in assay [5], 25.6 µM; in [6], 21.2 µM; in assay [7], 16.7 µM; in assay [9] it was 28 µM. Besides, the TGI in [10] and in assay [8] was above 100 µM throughout.
